Eight molecules from patent US20070010568A1, “Substituted azabicyclo hexane derivatives as muscarinic receptor antagonists” (priority 2003, published 2007) can be followed below.

Structures are written as SMILES. Where only a bound is given, the exact number is not on record here.

One assay concerns the target T1, M3 muscarinic receptor (Rattus norvegicus, UniProt P08483).
T1 construct: Submandibular glands and heart were isolated and placed in ice cold homogenising buffer; from tissue; host or cells: rat submandibular gland membrane homogenate
In words: Radioligand binding assay, [3H]-N-methylscopolamine, rat submandibular gland membranes. Conditions: [3H]NMS, 24-25° C., read-out: Receptor Binding Assay M3 (pKi) (converted). The procedure: (§1) The affinity of test compounds for M2 and M3 muscarinic receptor subtypes was determined by [^3H]-N-methylscopolamine binding studies using rat heart and submandibular gland respectively as described by Moriya et al., (Life Sci., 1999; 64 (25): 2351-2358).
(§2) Membrane preparation: Submandibular glands and heart were isolated and placed in ice cold homogenising buffer (EPES 20 mM, 10 mM EDTA, pH 7.4) immediately after sacrifice. The tissues were homogenised in 10 volumes of homogenising buffer and the homogenate was filtered through two layers of wet gauze and filtrate was centrifliged at 500 g for 10 min. The supernatant was subsequently centrifuged at 40,000 g for 20 min. The pellet thus obtained was resuspended in same volume of assay buffer (HEPES 20 mM, EDTA 5 mM, pH 7.4) and were stored at −70° C. until the time of assay.
(§3) Ligand binding assay: The compounds were dissolved and diluted in DMSO. The membrane homogenates (150-250 μg protein) were incubated in 250 μl of assay buffer (HEPES 20 mM, pH 7.4) at 24-25° C. for 3 h. Non-specific binding was determined in the presence of 1 μM atropine. The incubation was terminated by vaccum filtration over GF/B fiber filters(Wallac). The filters were then washed with ice cold 50 mM Tris HCl buffer (pH 7.4). The filter mats were dried and bound radioactivity retained on filters was counted. The IC50 & Kd were estimated by using the non-linear curve fitting program using G Pad Prism software. The value of inhibition constant Ki was calculated from competitive binding studies by using Cheng & Prusoff equation (Biochem Pharmacol, 1973,22: 3099-3108), Ki=IC50/(1+L/Kd), where L is the concentration of [^3H]NMS used in the particular experiment. pKi=−log Ki Functional Experiments Using Isolated Rat Bladder: Methodology: […]

In a further assay the target is T2, M2 muscarinic receptor (Rattus norvegicus, UniProt P10980).
T2 construct: Submandibular glands and heart were isolated and placed in ice cold homogenising buffer; from tissue; host or cells: rat heart membrane homogenate
T2 sequence (P10980 1-466): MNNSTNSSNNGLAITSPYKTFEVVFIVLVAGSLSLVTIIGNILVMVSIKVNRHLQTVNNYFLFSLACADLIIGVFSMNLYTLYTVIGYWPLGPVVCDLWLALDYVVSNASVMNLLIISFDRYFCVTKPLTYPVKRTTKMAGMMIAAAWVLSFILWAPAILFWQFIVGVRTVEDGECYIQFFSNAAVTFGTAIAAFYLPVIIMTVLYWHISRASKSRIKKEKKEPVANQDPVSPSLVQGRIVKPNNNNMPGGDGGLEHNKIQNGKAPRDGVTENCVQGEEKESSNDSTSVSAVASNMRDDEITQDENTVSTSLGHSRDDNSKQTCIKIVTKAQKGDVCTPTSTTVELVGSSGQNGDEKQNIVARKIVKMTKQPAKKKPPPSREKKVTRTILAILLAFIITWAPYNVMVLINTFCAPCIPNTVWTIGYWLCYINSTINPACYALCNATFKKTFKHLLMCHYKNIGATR
The assay is described as follows: Radioligand binding assay, [3H]-N-methylscopolamine, rat heart membranes. Conditions: [3H]NMS, 24-25° C., read-out: Receptor Binding Assay M2 (pKi) (converted). Here is the method: as §1, §2, §3

T1 sequence (P08483 whole entry): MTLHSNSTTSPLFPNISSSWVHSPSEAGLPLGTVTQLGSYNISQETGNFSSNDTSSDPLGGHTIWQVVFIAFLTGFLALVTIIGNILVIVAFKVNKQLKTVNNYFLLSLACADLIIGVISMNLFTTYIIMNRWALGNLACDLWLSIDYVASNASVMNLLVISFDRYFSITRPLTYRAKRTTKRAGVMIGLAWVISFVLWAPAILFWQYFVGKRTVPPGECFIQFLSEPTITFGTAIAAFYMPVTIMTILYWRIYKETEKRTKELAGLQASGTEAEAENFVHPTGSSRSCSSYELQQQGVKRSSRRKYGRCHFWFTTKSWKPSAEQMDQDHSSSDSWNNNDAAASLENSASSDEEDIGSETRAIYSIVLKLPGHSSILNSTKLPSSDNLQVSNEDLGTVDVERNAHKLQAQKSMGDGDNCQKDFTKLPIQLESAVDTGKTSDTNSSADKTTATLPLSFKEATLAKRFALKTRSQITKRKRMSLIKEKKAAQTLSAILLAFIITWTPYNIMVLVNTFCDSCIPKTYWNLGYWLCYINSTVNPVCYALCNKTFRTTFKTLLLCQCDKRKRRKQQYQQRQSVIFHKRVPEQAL

Regarding `O=C(CC(c1ccccc1)(c1ccccc1)c1ccccc1)N[C@H]1[C@@H]2CN(Cc3ccccc3)C[C@@H]21` [Compound No. 1, (1α, 5α, 6α)-N-[3-benzyl-3-azabicyclo[3.1.0]-hexyl-6-amino-yl]-3,3,3-triphenylpropionaniide], the Ki at M3 muscarinic receptor and on M2 muscarinic receptor was over 1000 nM throughout.
With `O=C(CC(c1ccccc1)(c1ccccc1)c1ccccc1)N[C@H]1[C@@H]2CN(CCc3ccc4c(c3)OCO4)C[C@@H]21` [Compound No. 3, (1α, 5α, 6α)-N-[3-{2-(3,4-methylenedioxy-phenyl)ethyl}-3-azabicyclo [3.1.0]-hexyl-6-amino-yl]-3,3,3-triphenylpropionamide], the Ki on M3 muscarinic receptor and on M2 muscarinic receptor was over 1000 nM throughout.
Consider `O=C(N[C@H]1[C@@H]2CNC[C@@H]21)C(O)(c1ccc(F)cc1)c1ccc(F)cc1` [Compound No. 7, (1α, 5α, 6α)-N-[3-azabicylo[3.1.0]-hexyl-6-amino-yl]-2-hydroxy-2,2-bis-4-fluorophenyl acetamide], for which the Ki at M3 muscarinic receptor and on M2 muscarinic receptor was over 1000 nM in each case.
As to `O=C(CCNC(=O)CNC(=O)CC(c1ccccc1)(c1ccccc1)c1ccccc1)NC[C@@H]1[C@H]2CN(Cc3ccccc3)C[C@@H]12` [Compound No. 5, (1α, 5α, 6α)-N-[(3-oxopropyl)amino-2-oxoethyl-3-benzyl-3-azabicyclo [3.1.0]-hexyl-6-aminomethyl]-3,3,3-triphenyl propionamide], the Ki at M3 muscarinic receptor and on M2 muscarinic receptor was over 1000 nM in each case.
For the molecule `CC(C)=CCCN1C[C@@H]2[C@H](C1)[C@H]2NC(=O)CC(c1ccccc1)(c1ccccc1)c1ccccc1` [Compound No. 2, (1α, 5α, 6α)-N-[3-(4-methyl-3-pentenyl)-3-azabicyclo[3.1.0]-hexyl-6-amino-yl]-3,3,3-triphenyl propionamide], the Ki at M3 muscarinic receptor and at M2 muscarinic receptor was over 1000 nM throughout.
Turning to `O=C(CNC(=O)CC(c1ccccc1)(c1ccccc1)c1ccccc1)NCCC(=O)N[C@H]1[C@@H]2CN(Cc3ccccc3)C[C@@H]21` [Compound No. 6, (1α, 5α, 6α)-N-[(3-oxopropyl]amino-2-oxoethyl-3-benzyl-3-azabicyclo [3.1.0]-hexyl-6-amino-yl]-3,3,3-triphenyl propionamide], the Ki on M3 muscarinic receptor and on M2 muscarinic receptor was over 1000 nM in each case.
For `CCCOC(C(=O)N[C@H]1[C@@H]2CNC[C@@H]21)(c1ccc(F)cc1)c1ccc(F)cc1` [Compound No. 8, (1α, 5α, 6α)-N-[3-azabicyclo[3.1.0]-hexyl-6-amino-yl]-2-propyloxy-2,2-bis-4-fluorophenyl acetamide], the Ki on M3 muscarinic receptor and on M2 muscarinic receptor was over 1000 nM each time.
`O=C(CC(c1ccccc1)(c1ccccc1)c1ccccc1)N[C@H]1[C@@H]2CN(CC(=O)c3ccc4c(c3)CCO4)C[C@@H]21` [Compound No. 4, (1α, 5α, 6α)-N-[3-{2-oxo-2-(2,3-dihydrobenzofuran-5-yl)ethyl}-3-azabicyclo[3.1.0]-hexyl-6-amino-yl]-3,3,3-triphenyl propionamide]: the Ki on M3 muscarinic receptor and on M2 muscarinic receptor was over 1000 nM throughout.
